The results in this text go back to patent US8299096B2, “Method for treating pulmonary diseases using rho kinase inhibitor compounds” (priority 2008, dated 2012).

The target of one data set is T1, ROCK1 (Homo sapiens, UniProt Q13464).
T1 construct: purchased Upstate/Chemicon 14-601
Put plainly: Rho kinase inhibition assay (IMAP), ROCK1. It counts as biochemical.

Data set [1] can be described thus: Compound plasma concentrations in mice at 15 min post administration. It counts as in vivo, mouse. To be noted: for concentration at 15 min: mouse.
Experimental: Additionally, compound concentrations were determined in the plasma and lungs of male, ovalbumin-sensitized, Balb/c mice from a murine model of asthma. Test compounds were formulated in water or 1% polysorbate 80 and dosed at 15 μmol/kg for intraperitoneal (IP) or oral (PO) administration or formulated for intratracheal (IT) administration and dosed at 5 μmol/kg, which directly targets the lungs. Following completion of the in vivo study, mice were euthanized and blood and plasma collected approximately 2.5-3 hours post administration of test compound for bronchodialator (BD) studies and 24 hours post administration for anti-inflamatory (AI) studies. Lungs were homogenized in Matrix A lysing tubes using a FastPrep 24 tissue and cell homogenizer (MP Biomedicals, Solon, Ohio). Both plasma samples and lung extracts were assayed for compound concentrations using an on-line, solid phase extraction LC/MS/MS system.
For the next data set, the target named is T2, p70S6K (Homo sapiens, UniProt P23443, T412E).
T2 construct: purchased Upstate Chemicon 14-486
In words: p70S6K inhibition assay (IMAP). It counts as biochemical.

The test system of another data set is rat tracheal rings. Put plainly: Tracheal relaxation assay, carbachol precontracted rings.
In data set [2] the test system is ovalbumin-sensitized mice. In words: Prevention of airway hyperreactivity development, anti-inflammatory dosing paradigm (Penh). To be noted: oral, 15 μMol/kg once a day during days 27 to 31. It is filed as in vivo, mouse.
Data set [3] deals with ovalbumin-sensitized mice. In words: Anti-inflammatory assay in ovalbumin-sensitized mouse model of asthma (BALF cells and cytokines). To be noted: dosed orally to day 31, anti-inflammatory dosing paradigm. It counts as in vivo. The source says:
Mouse model of asthma via ovalbumin sensitization was created as described in Example 5. The anti-inflammatory dosing paradigm (FIG. 4) was utilized to evaluate the anti-inflammatory effects of experimental compounds. The anti-inflammatory dosing paradigm consists of dosing the animals once a day starting on day 27 and finishing on either day 30 or 31 (1 hr prior to the aerosolized ovalbumin challenges on days 28 to 30) but not on day 32 when hyper-reactivity evaluation occurs.
Bronchoalveolar lavage fluid (BALF) was collected by infusing 3.0 ml of saline with 10% fetal calf serum into the lungs via the trachea and then withdrawing the fluid. The total amount of cells/ml of BALF fluid was determined via manual cell count on hemocytometer. The BALF was centrifuged, supernatant removed and analyzed for cytokine concentrations as described below, and cell pellet reconstituted in 500 μL of fluid. Cytospin slides were prepared from the cell pellet using 100 μL of fluid and spinning samples for 5 minutes at 5000 rpms in a cytospin centrifuge. Following Hema3 stain, relative percentages of individual leukocytes were determined on a 200 cell count for each sample. The final concentration of individual leukocyte cell types per ml of BALF was determined by multiplication of the relative percentage of individual leukocytes with the total amount of cells/ml of BALF fluid.
The concentrations of cytokines in the BALF samples were determined using commercially available Bio-plex kits (Bio-Rad) for the detection of mouse IL-5, IL-13, and Eotaxin. The analysis of cytokine levels was measured using the Bio-Plex 200 (Bio-Rad) system according to the manufacturer's instructions.

Data set [4] relates to ovalbumin-sensitized mice. In words: Bronchodilator assay in ovalbumin-sensitized mouse model of asthma (Penh). It counts as in vivo. To be noted: for Reduction in airway hyperresponsivness: oral doses. As for the experimental part: Male BALB/c mice were ordered from Charles River Laboratories (Raleigh, N.C.). The animals were approximately 19 to 21 grams at time of receipt. Upon arrival, the animals were randomized into groups of five males per cage and assigned to a dosing group. Animals were quarantined for 7 days under test conditions. They were observed daily for general health status and ability to adapt to the water bottles.
Animals were sensitized on day 0 and 14 of study by an intraperitoneal injection with 20 μg of ovalbumin (ova) and 2.0 mg aluminum hydroxide (alum) which initiates the development of a specific T-helper (Th) cells type 2 resulting in asthmatic animals. One group of animals received an injection of saline to use as non-asthmatic control animals. All animals were challenged with aerosolized 1% ova once daily for 25 minutes on days 28, 29, and 30 (Zosky, et al. Respiratory Research, 2004; 5:15). Aerosol challenge consists of using an Aerogen Aeroneb nebulizer and controller with a particle size of 4-6 μm mass median aerodynamic diameter (MMAD) with a distribution of 400 μl per minute. This aerosol challenge is necessary to target the Th2-driven allergic inflammation in the lower airways.
The test compounds and the control vehicle were administered to animals on the day of airway hyperreactivity evaluation 30 minutes to 1 hour before the evaluation to determine the bronchodilator effects of the compounds according to the bronchodilator dosing paradigm (FIG. 3A). Compounds were administered p.o. (orally), i.p. (intraperitoneally) at 15 μMol/kg unless otherwise noted (Table 4). Alternatively, compounds were administered i.t. (intratracheally) at varying doses as shown (FIG. 3B). On day 32 of the experiment, airway hyperreactivity was evaluated by placing conscious, unrestrained animals in a whole body plethysmometer (Buxco Wilmington, N.C.) and exposing them to escalating doses of nebulized methacholine, a known bronchial constrictor which acts through the muscarinic receptors of the lungs, (doses: […]-50 mg/ml). Exposure to the methacholine doses consisted of a 3 minute period during which a nebulizer was aerosolizing the methacholine and an additional 3 minute period following the cessation of nebulization. Over this 6 minute period, the plethysmometer monitors and generates numerical values for all parameters of the breath pattern. Enhanced pause (Penh), a unitless index of airway hyperreactivity, is derived from the expiratory side of the respiratory waveform measured via the plethysmograph and is used as an indirect measure of airway resistance and hyperreactivity. […] Following the methacholine dose response, all animals were anesthetized, bled and euthanized.
Within each experiment, a mouse was given a single compound and exposed to increasing doses of methacholine [0 (baseline), 0.375, 0.75, 1.5, 3, 6, 12, 25, 50 mg/ml]. The Penh value at each of the dose levels of methacholine represents the 6-minute average response. Change from baseline (CFB) in Penh was calculated at each methacholine dose and the area under the curve (AUC) for these CFB values was calculated using the trapezoidal rule. This same approach was applied for each mouse across multiple experiments.
For statistical analyses, a linear mixed-effects model where the response was the log 10 transformed value of AUC described above was used. Data from equal experimental conditions across experiments performed on different days were pooled for statistical analysis and data reporting. The various compounds were compared adjusting for the log 10-transformed baseline value of Penh and the chamber (1 of 10) of the plethysmometer each mouse was contained in during an experiment. A random intercept for each experiment was assumed to account for possible similarities of the results obtained from a given experiment (i.e., as a “blocking effect”).
For Table 4 and Table 5, Penh values are reported as log 10 transformed AUC values. […]

A short description of data set [5]: Rat oral pharmacokinetics (plasma). It is filed as in vivo.
Experimental: Plasma (EDTA K2 anticoagulant) was collected from male, cannulated, CD Sprague Dawley rats to determine the pharmacokinetics of formulations containing compound inhibitors of Rho kinase. Each animal was dosed orally with a 4 ml/kg solution or suspension of each test compound in 10 mM acetate buffered saline, pH 4.5 at a final concentration range of 20-30 μmol/kg. Blood was collected at 0.25, 0.5, 1, 2, 4, 6, 8, and 24 hours. Plasma samples were assayed for the concentration of the test compound using an on-line, solid phase extraction LC/MS/MS analysis system.
Samples were analyzed on a QSTAR Elite, hybrid quadrupole time-of-flight mass spectrometer (Applied Biosystems, Framingham, Mass.) coupled with a Symbiosis Pharma integrated, on-line SPE-HPLC system (Spark Holland Inc., Plainsboro, N.J.). Analyst QS 2.0 software was used for instrument control, data acquisition and processing. […] Mobile Phase A consisted of 0.1% ammonium hydroxide in water and Mobile Phase B consisted of 0.1% formic acid in acetonitrile. Pharmacokinetic analyses were performed using WinNonlin software version 5.2 (Pharsight Corporation, Mountain View, Calif.).
The mark [6] stands for this setting: read-out: ROCK1 Ki, average Ki (Example 1).
Where [7] appears, read: Balb/c, 15 μmol/kg, mean compound plasma concentration in mice at 15 minutes post oral administration, read-out: Mouse Oral PK.
The mark [8] stands for this setting: mice, plasma, 15 min post administration (oral dosing), mean of n = 3 mice, read-out: Plasma Mean Concentration.
Setting [9] is: IMAP FP, human enzyme, Ki=IC50/(1+([ATP Challenge]/EC50 ATP)), read-out: p70S6K Ki, Avg.
The mark [10] stands for this setting: average Ki (Example 31), read-out: p70S6K Ki.
The mark [11] stands for this setting: rat, oral, 20-30 μmol/kg, plasma, mean n = 3.

pKi: −log10 of the molar value. Like-named read-outs stand apart in the source and are kept apart here.

T1 sequence (Q13464 17-535 limits assumed): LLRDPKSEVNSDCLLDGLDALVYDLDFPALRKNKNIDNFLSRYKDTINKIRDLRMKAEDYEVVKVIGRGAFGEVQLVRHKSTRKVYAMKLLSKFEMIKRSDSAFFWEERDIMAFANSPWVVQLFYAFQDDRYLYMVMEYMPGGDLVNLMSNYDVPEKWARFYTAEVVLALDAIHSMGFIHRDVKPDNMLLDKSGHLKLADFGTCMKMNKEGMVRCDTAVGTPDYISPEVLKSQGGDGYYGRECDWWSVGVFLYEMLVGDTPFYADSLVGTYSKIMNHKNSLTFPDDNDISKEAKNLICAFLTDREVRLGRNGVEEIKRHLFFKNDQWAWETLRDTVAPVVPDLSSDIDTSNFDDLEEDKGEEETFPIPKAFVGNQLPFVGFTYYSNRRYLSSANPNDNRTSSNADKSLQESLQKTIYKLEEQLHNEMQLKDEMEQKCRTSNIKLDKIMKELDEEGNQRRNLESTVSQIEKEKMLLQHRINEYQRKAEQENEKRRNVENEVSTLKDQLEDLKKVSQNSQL
T2 sequence (P23443 1-421 T412E limits assumed): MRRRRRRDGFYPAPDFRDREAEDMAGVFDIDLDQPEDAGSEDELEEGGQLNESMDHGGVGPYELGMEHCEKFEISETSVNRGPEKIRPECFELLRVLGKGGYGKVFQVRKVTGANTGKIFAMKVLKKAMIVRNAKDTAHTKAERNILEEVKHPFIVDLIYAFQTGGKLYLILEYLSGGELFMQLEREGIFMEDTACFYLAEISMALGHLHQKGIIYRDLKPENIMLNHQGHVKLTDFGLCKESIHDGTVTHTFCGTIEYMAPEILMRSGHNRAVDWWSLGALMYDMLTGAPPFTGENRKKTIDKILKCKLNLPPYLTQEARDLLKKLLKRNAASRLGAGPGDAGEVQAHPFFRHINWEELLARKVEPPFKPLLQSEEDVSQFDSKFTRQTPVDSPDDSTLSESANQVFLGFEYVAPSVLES
Experimental for ROCK1: Following the pre-incubation, 10 μM ATP was added to initiate the reaction. After 60 minutes at room temperature, Molecular Devices IMAP™ binding solution was added to bind phosphorylated substrate. After 30 minutes of incubation in the presence of the IMAP™ beads, the fluorescence polarization was read and the ratio was reported as mP. IC50 values for compounds and EC50 values for ATP were calculated using the Prism software from Graphpad.
Experimental for p70S6K: Inhibition of Akt3 and p70S6K activity was determined using the IMAP™ FP Progressive Binding Kit (Molecular Devices product number R8127). […] Following the pre-incubation, 30 M ATP was added to initiate the reaction. After 60 minutes at RT, Molecular Devices IMAP™ binding solution was added to bind phosphorylated substrate. After 30 minutes of incubation in the presence of the IMAP™ beads the fluorescence polarization was read and the ratio was reported as mP. IC50 results were calculated using the Prism software from Graphpad. The Ki values were determined according to the following formula: Ki=IC50/(1+([ATP Challenge]/EC50 ATP)).
Experimental for rat tracheal rings: Trachea were excised, cleaned of connective tissue and cut into cylindrical segments of 2-3 mm length. Two stainless steel wires were guided through the lumen of the tracheal ring. One wire was fixed in the tissue bath and the other was connected to a force transducer via surgical silk. […] Indomethacin (1 μM), a cyclooxygenase inhibitor, was added to the Krebs buffer and was present throughout the experiments. Contractile tensions were measured using an isometric force transducer (Grass Instruments) and signals were analyzed using specialized software (Chart v5.5, ADInstruments). The preparations were allowed to equilibrate at a resting tension of 0.3 to 0.5 gm prior to two challenges with 60 mM KCl to assess tissue viability. After washing, tissues were treated with 1 μM carbachol for 10 to 15 minutes to induce a contractile response. Test Compounds were added cumulatively to the bath every 30 minutes and reductions in tension were recorded. Basal tension was subtracted from all values and data were reported as a percentage of the maximal carbachol-induced contraction. Data were fit to the Hill equation using GraphPad Prism v5 software.

In the case of `Cc1ccc(CN2CCC[C@H](Nc3ccc4[nH]ncc4c3)C2)cc1NS(=O)(=O)N(C)C` [Compound 1.237], the negative logarithm of the Ki (pKi) (usually the Ki on a negative log10 scale, so that one unit is a factor of ten) was 6.54 on ROCK1, 6.54 on ROCK1 (setting [6]), 5.01 on p70S6K (setting [9]) and 5.01 on p70S6K (setting [10]). Further, the concentration at 15 min in data set [1] (setting [7]) and in data set [1] (setting [8]) was 178 nM in each case.

Consider `O=S(=O)(c1cccc2cnccc12)N1CCCNCC1` [fasudil], for which, in the data set on rat tracheal rings (10 μM compound, 1 μM carbachol precontracted rat trachea rings), the “Percentage of carbachol-induced contraction at 10 μM compound, Avg %” value was “least efficacious”. The “IC50, tracheal ring relaxation” value with rat tracheal rings (carbachol precontracted tissue) is on record as “could not be obtained”.

In the case of `c1cc2cc(CN3CCC[C@@H](Nc4ccc5[nH]ncc5c4)C3)ccc2o1` [Compound 1.131], the “Prevention of airway hyperreactivity to metacholine on Day 32” value in data set [2] is “prevention of airway hyperreactivity”. For the same compound, the “Detection in mouse plasma 15 minutes after oral dosing” value in data set [1] (mouse plasma, 15 minutes, oral) is reported as “readily detectable”. Moreover, the “Airway eosinophil infiltration (eosinophils per ml of BALF)” value in data set [3] is recorded as “reduced”. For the same compound, the “Reduction in airway hyperresponsivness” value in data set [4] was “statistically significant reduction”.

For the compound `Cc1ccc(CN2CCC[C@@H](Nc3ccc4[nH]ncc4c3)C2)cc1NS(=O)(=O)N(C)C` [Compound 1.262], the pKi at ROCK1 is 7.26; on ROCK1 (setting [6]), 7.26; on p70S6K (setting [9]), 5.26; at p70S6K (setting [10]) it was 5.26. Further, the concentration at 15 min in data set [1] (setting [7]) and in data set [1] (setting [8]) was 285 nM in each case.

Turning to `CCc1ccc(CN2CCC[C@@H](Nc3ccc4[nH]ncc4c3)C2)cc1` [Compound 1.136], the “Trachael Ring Contraction” value in the data set with rat tracheal rings (average percentage of carbachol-induced rat trachael ring contraction at 1 μM of test compound) is recorded as 45%. The Oral bioavailability result in data set [5] (oral dosing) is listed as “poor”. For the same compound, in data set [5] (setting [11]), the “AUC (0-last)” value is “below the level of quantification” and the Cmax entry is “below the level of quantification”. Moreover, in data set [4] (i.p. route of administration, compared to oral dosing), the “Reduction in airway hyperresponsiveness” value is reported as “enhanced reduction”. In addition, the “Reduction in airway hyperresponsivness” value in data set [4] is recorded as “did not yield a significant reduction”.
